According to US8846675B2, “N-linked heterocyclic receptor agonists for the treatment of diabetes and metabolic disorders” (Cymabay Therapeutics, Inc., priority 2007, dated 2014):

Each compound was assayed against T1, IC-GPCR2 (Homo sapiens, UniProt Q8TDV5, S309L) (assay: Stimulation of cAMP in CHO cell line stably expressing IC-GPCR2 (HTRF cAMP dynamic kit)). Details: 3 μM compound; IC-GPCR2 stably expressing CHO cells; not included in Table 1.
T1 construct: expressed in transfected cells
T1 sequence (Q8TDV5 1-335 S309L): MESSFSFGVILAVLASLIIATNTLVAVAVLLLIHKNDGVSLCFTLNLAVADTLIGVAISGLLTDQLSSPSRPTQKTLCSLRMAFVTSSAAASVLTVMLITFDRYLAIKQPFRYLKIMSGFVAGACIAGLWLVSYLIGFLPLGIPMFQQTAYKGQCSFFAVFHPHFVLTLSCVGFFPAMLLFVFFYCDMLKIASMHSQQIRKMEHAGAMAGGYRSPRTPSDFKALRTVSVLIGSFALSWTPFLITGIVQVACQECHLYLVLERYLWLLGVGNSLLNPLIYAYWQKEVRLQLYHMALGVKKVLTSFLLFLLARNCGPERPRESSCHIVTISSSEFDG
Format: cell-based
Summary of the method: (§1)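 CHO cells stably expressing IC-GPCR2, with parental CHO as counter-screen, were exposed to compound (0.00003–10 μM) for 30 min in Ham's F12. Intracellular cAMP read by HTRF competitive immunoassay (665/620 nm ratio). Activity at 3 μM expressed as % of maximal signal from a reference agonist.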

Row | activity when tested at 3 μM (in words) | Structure (SMILES)
1 | did not exhibit activity | Cc1nc(C)c(S(=O)(=O)N2CCC(n3ncc(COc4ccc(-n5cnnn5)nc4)n3)CC2)s1 [Example 39, 5-(4-(4-((6-(1H-Tetrazol-1-yl)pyridin-3-yloxy)methyl)-2H-1,2,3-triazol-2-yl)piperidin-1-ylsulfonyl)-2,4-dimethylthiazole]
2 | did not exhibit activity | Cn1cnc(S(=O)(=O)N2CCC(n3ncc(COc4ccc(-n5cnnn5)nc4)n3)CC2)c1 [Example 42, 5-((2-(1-(1-Methyl-1H-imidazol-4-ylsulfonyl)piperidin-4-yl)-2H-1,2,3-triazol-4-yl)methoxy)-2-(1H-tetrazol-1-yl)pyridine]
3 | did not exhibit activity | Cc1noc(C)c1S(=O)(=O)N1CCC(n2ncc(COc3ccc(-n4cnnn4)nc3)n2)CC1 [Example 43, 4-(4-(4-((6-(1H-Tetrazol-1-yl)pyridin-3-yloxy)methyl)-2H-1,2,3-triazol-2-yl)piperidin-1-ylsulfonyl)-3,5-dimethylisoxazole]
4 | did not exhibit activity | C[C@H](NC(=O)OC(C)(C)C)C(=O)N1CCC(n2ncc(COc3ccc(-n4cnnn4)nc3)n2)CC1 [Example 53, (S)-tert-Butyl 1-(4-(4-((6-(1H-tetrazol-1-yl)pyridin-3-yloxy)methyl)-2H-1,2,3-triazol-2-yl)piperidin-1-yl)-1-oxopropan-2-ylcarbamate]
5 | did not exhibit activity | COC(=O)c1cc(C)nc(N2CCC(n3ncc(COc4ccc(-n5cnnn5)nc4)n3)CC2)n1 [Example 79, Methyl 2-(4-(4-((6-(1H-tetrazol-1-yl)pyridin-3-yloxy)methyl)-2H-1,2,3-triazol-2-yl)piperidin-1-yl)-6-methylpyrimidine-4-carboxylate]
6 | did not exhibit activity | Cn1nc(OCc2cnn(C3CCN(c4ncc(Cl)cn4)CC3)n2)cc1C(F)(F)F [Example 97, 5-Chloro-2-{4-[4-(1-methyl-5-trifluoromethyl-1H-pyrazol-3-yloxymethyl)-[1,2,3]-triazol-2-yl]-piperidin-1-yl}-pyrimidine]

The compounds below were run against T2, IC-GPCR2 (Homo sapiens, UniProt Q8TDV5) in the same assay as above. Details: 3 μM compound; relative to maximal activity of 5-Ethyl-2-{4-[4-(4-tetrazol-1-yl-phenoxymethyl)-thiazol-2-yl]-piperidin-1-yl}-pyrimidine (=100%); IC-GPCR2 stably expressing CHO cells, 30 minutes.
T2 construct: expressed in transfected cells
T2 sequence (Q8TDV5 1-335 S309L): T1 sequence (Q8TDV5 1-335 S309L)
Format: cell-based
Summary of the method: as §1

Row | % activity at 3 μM | Structure (SMILES)
7 | 57.71% | CCc1cnc(N2CCC(n3ccc(COc4ccc(-n5cnnn5)cc4F)n3)CC2)nc1 [Example 113, 5-Ethyl-2-(4-(3-((2-fluoro-4-(1H-tetrazol-1-yl)phenoxy)methyl)-1H-pyrazol-1-yl)piperidin-1-yl)pyrimidine]
